Measurements taken from ChEMBL document CHEMBL1201862, “PubChem BioAssay data set” (2004).
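All cell lines were grown in 96-well plates and treated with compound for 48 hours. The concentration for 50% growth inhibition is given as GI50.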 Calls of active or inactive are those of the source. Cut-off read from the data, not from the text of the source: active = GI50 up to about 1.1 µM and inactive = higher.

How the values were obtained:
Assay in all cases: inhibition of tumour cell growth, NCI panel, 48 h
Hs-578T = test system: Hs-578T
DU-145 = test system: DU-145
NCI-H460 = test system: NCI-H460
RPMI-8226 = test system: RPMI-8226
CCRF-CEM = test system: CCRF-CEM
SN12C = test system: SN12C
ACHN = test system: ACHN
HCT-116 = test system: HCT-116
NCI/ADR-RES = test system: NCI/ADR-RES
COLO 205 = test system: COLO 205
MCF7 = test system: MCF7
786-0 = test system: 786-0
NCI-H522 = test system: NCI-H522
Malme-3M = test system: Malme-3M
LOX IMVI = test system: LOX IMVI
K562 = test system: K562
UO-31 = test system: UO-31
SF-539 = test system: SF-539
PC-3 = test system: PC-3
SK-OV-3 = test system: SK-OV-3

Row | SMILES | GI50 (Hs-578T) | GI50 (DU-145) | GI50 (NCI-H460) | GI50 (RPMI-8226) | GI50 (CCRF-CEM) | GI50 (SN12C) | GI50 (ACHN) | GI50 (HCT-116) | GI50 (NCI/ADR-RES) | GI50 (COLO 205) | GI50 (MCF7) | GI50 (786-0) | GI50 (NCI-H522) | GI50 (Malme-3M) | GI50 (LOX IMVI) | GI50 (K562) | GI50 (UO-31) | GI50 (SF-539) | GI50 (PC-3) | GI50 (SK-OV-3)
1 | CCCC[C@H]1C(=O)O[C@H](C)[C@H](NC(=O)c2cccc(NC=O)c2O)C(=O)O[C@@H](C)[C@@H]1OC(=O)CC(C)C [ANTIMYCIN A3] | 13 µM (inactive) | 3.55 µM (inactive) | < 0.01 µM (active) | 0.109 µM (active) | < 0.0229 µM (active) | 14.2 µM (inactive) | 1.15 µM (inactive) | < 0.01 µM (active) | 5.32 µM (inactive) | 3.34 µM (inactive) | 0.0442 µM (active) | 9.08 µM (inactive) | 5.93 µM (inactive) | 7.28 µM (inactive) | < 0.01 µM (active) | < 0.0123 µM (active) | 4.94 µM (inactive) | 12.8 µM (inactive) | 0.278 µM (active) | 12 µM (inactive)
2 | O=C1N[C@@H](c2c[nH]c3cc(Br)ccc23)C(=O)N[C@H]1c1c[nH]c2cc(Br)ccc12 | > 100 µM (inactive) | > 100 µM (inactive) | > 100 µM (inactive) | > 100 µM (inactive) | > 100 µM (inactive) | > 100 µM (inactive) | > 100 µM (inactive) | > 100 µM (inactive) | > 100 µM (inactive) | > 100 µM (inactive) | > 100 µM (inactive) | > 100 µM (inactive) | > 100 µM (inactive) | > 100 µM (inactive) | > 100 µM (inactive) | > 100 µM (inactive) | > 100 µM (inactive) | 79.8 µM (inactive) | > 100 µM (inactive) | 35.4 µM (inactive)
3 | O=C(/C=C/c1cccc2ccccc12)c1ccccc1 | 26.3 µM (inactive) | 14.8 µM (inactive) | 16.1 µM (inactive) | 2.31 µM (inactive) | 3.28 µM (inactive) | 7.89 µM (inactive) | 13.9 µM (inactive) | 10.3 µM (inactive) | 14 µM (inactive) | 20.7 µM (inactive) | 1.29 µM (inactive) | 8.83 µM (inactive) | 10.1 µM (inactive) | 12.9 µM (inactive) | 1.99 µM (inactive) | 2.74 µM (inactive) | 11.6 µM (inactive) | 3.57 µM (inactive) | 7.05 µM (inactive) | 16.3 µM (inactive)
4 | CC(C)(C)CC(C)(C)c1ccc(O)c(C[N+](C)(C)[O-])c1 | 65.6 µM (inactive) | > 100 µM (inactive) | > 100 µM (inactive) | 62.2 µM (inactive) | 41.8 µM (inactive) | > 100 µM (inactive) | > 100 µM (inactive) | 98.6 µM (inactive) | > 100 µM (inactive) | 60.3 µM (inactive) | 80 µM (inactive) | > 100 µM (inactive) | 53.5 µM (inactive) | > 100 µM (inactive) | > 100 µM (inactive) | 74.8 µM (inactive) | 60.1 µM (inactive) | > 100 µM (inactive) | 85.7 µM (inactive) | > 100 µM (inactive)
5 | Cc1ccc(C2(N3CCCC3)OC(C)(C)c3cccc4cccc2c34)cc1 (stereo not given) | 15.6 µM (inactive) | 16.9 µM (inactive) | 13.5 µM (inactive) | 22.3 µM (inactive) | 41.1 µM (inactive) | 17.5 µM (inactive) | 15.8 µM (inactive) | 15.6 µM (inactive) | 15 µM (inactive) | 15.6 µM (inactive) | 17.1 µM (inactive) | 18.7 µM (inactive) | 12.9 µM (inactive) | 18.1 µM (inactive) | 15.7 µM (inactive) | 22.3 µM (inactive) | 15.1 µM (inactive) | 16.9 µM (inactive) | 15.4 µM (inactive) | 15.6 µM (inactive)
6 | COc1ccc(/C=C/C(=O)c2cccc(C(=O)/C=C/c3ccc(OC)c(OC)c3)n2)cc1OC | > 48.2 µM (inactive) | > 100 µM (inactive) | 96.8 µM (inactive) | 3.23 µM (inactive) | 1.05 µM (active) | 15.5 µM (inactive) | 25.8 µM (inactive) | 7.96 µM (inactive) | 24.8 µM (inactive) | > 68.2 µM (inactive) | 3.64 µM (inactive) | 11.9 µM (inactive) | 4.75 µM (inactive) | 24.5 µM (inactive) | 2.02 µM (inactive) | 3.69 µM (inactive) | 16.4 µM (inactive) | 14.4 µM (inactive) | 29 µM (inactive) | > 100 µM (inactive)
7 | C/C1=C/C2OC(=O)C3(C)C2C(CC2(C)OC1=CC2=O)OC3(O)C(C)C (stereo not given) | 59 µM (inactive) | 59.8 µM (inactive) | 42.5 µM (inactive) | 21.8 µM (inactive) | 23.6 µM (inactive) | 31.4 µM (inactive) | 33.9 µM (inactive) | > 61.1 µM (inactive) | 59 µM (inactive) | 36.6 µM (inactive) | 43.7 µM (inactive) | 26.1 µM (inactive) | 14.8 µM (inactive) | 33.5 µM (inactive) | 31.4 µM (inactive) | 32.7 µM (inactive) | 84.1 µM (inactive) | 41.4 µM (inactive) | 40.8 µM (inactive) | 46 µM (inactive)
8 | O=C(O)CC1NC(/C(=C/c2ccccc2O)NC(=O)c2ccccc2)OC1=O (stereo not given) | 24.7 µM (inactive) | > 79.6 µM (inactive) | > 58.7 µM (inactive) | > 100 µM (inactive) | > 100 µM (inactive) | 48.8 µM (inactive) | 19.3 µM (inactive) | 45.9 µM (inactive) | 19.5 µM (inactive) | > 100 µM (inactive) | 3.97 µM (inactive) | 30.3 µM (inactive) | 33 µM (inactive) | 55.7 µM (inactive) | 50.9 µM (inactive) | > 100 µM (inactive) | 33.9 µM (inactive) | 22.3 µM (inactive) | 49 µM (inactive) | 23 µM (inactive)
9 | CC(=O)CN/C(C)=N/Nc1ccc([N+](=O)[O-])cc1[N+](=O)[O-] | > 100 µM (inactive) | > 100 µM (inactive) | > 100 µM (inactive) | > 100 µM (inactive) | > 100 µM (inactive) | > 100 µM (inactive) | 94.4 µM (inactive) | > 100 µM (inactive) | > 100 µM (inactive) | > 100 µM (inactive) | > 100 µM (inactive) | > 100 µM (inactive) | > 100 µM (inactive) | 70.5 µM (inactive) | > 100 µM (inactive) | 5.2 µM (inactive) | > 100 µM (inactive) | > 100 µM (inactive) | > 100 µM (inactive) | > 100 µM (inactive)
10 | CC(C)/C(Cl)=N/OC(=O)Nc1ccc(F)c(Cl)c1 | 21.6 µM (inactive) | 16.2 µM (inactive) | 18.2 µM (inactive) | 1.87 µM (inactive) | 1.31 µM (inactive) | 1.76 µM (inactive) | 1.88 µM (inactive) | 2.54 µM (inactive) | 14.5 µM (inactive) | 1.77 µM (inactive) | 6.64 µM (inactive) | 1.6 µM (inactive) | 1.65 µM (inactive) | 1.96 µM (inactive) | 1.76 µM (inactive) | 1.09 µM (active) | 16.7 µM (inactive) | 6.43 µM (inactive) | 16.1 µM (inactive) | 16.4 µM (inactive)
